Data reported in patent US20240091324A1, “GASTROINTESTINAL HEALTH COMPOSITION” (priority 2019, published 2024).

Assays:
[1] = system: IL-8 release from Caco-2 monolayers; test: Release of IL-8 from polarised Caco-2 monolayers stimulated with LPS, TNF-α, IFN-β; format: cell-based, human; conditions: for % increase in anti-inflammatory activity compared to equivalent formulation without bromelain (difference of means): plus 80 ug/ml bromelain
Protocol: Inflammatory model of Caco-2 polarised monolayer stimulated with inflammatory mediators LPS, TNF-α, IFN-β: Polarised Caco-2 models were generated as previously described. When cell cultures reached a baseline TER of >1000/cm^2, the monolayers were stimulated by addition of 0.6 ml containing 50 ng/ml IFN-β, 10 μg/ml LPS and 5 ng/ml TNFα to the basolateral compartment. Immediately after the addition of the stimulation cocktail 0.25 ml of GaRP±0-80 μg/ml bromelain was applied to the apical compartment. After the 24 h incubation culture supernatants from the apical side were collected for quantitation of IL-8.
The human colorectal adenocarcinoma cell-line C2BBe1 was grown and maintained in Dulbecco's modified Eagle's medium (DMEM) supplemented with 10% v/v fetal bovine serum (FBS), 4 mM L-glutamine, 100 U/ml penicillin and […] streptomycin. All experiments were conducted on C2BBe1 cells within 12 passages after thawing.
In an experiment to evaluate the anti-inflammatory effect of bromelain or various GaRP formulations, 0.25 ml of test samples was applied to the apical side for 24 h, at the same time 0.6 ml of a cocktail containing 50 ng/ml IFN+10 ug/ml LPS+5 ng/ml TNF was added to the basolateral side in this model. After the 24 h incubation culture supernatants from the apical side were collected and IL-8 quantitated by ELISA.

TNBS colitis [2] = test: Histological scoring of colitis in colon sections post treatment (Example 14); format: in vivo, C56/BL/6 mice; conditions: TNBS colitis mice, 2 mg/kg prednisolone
Description: Colitis was induced and treated C56/BL/6 mice from examples 11 and 12 were euthanised post treatment and the colons sectioned for histopathological analysis. Each bar represents the mean histopathology score for the treatment groups. Values of the number of animals, means, standard deviations and statistical significance relative to placebo are shown in parentheses.
In this example, the colon was fixed, stained and sectioned before being assessed by microscopy in a blinded manner. Colons were examined not only for active disease but evidence of recovery from disease and scored according to the following criteria. Scoring was performed in triplicate blinded to the scorer with a maximum score of 3 in each of 6 categories.
• Hypervascularization (opening of blood vessels) • Presence of mononuclear cells (architecture also disappear) • Epithelial hyperplasia (elongated crypt and villi) • Epithelial injury (loss of epithelial continuity) • Presence of neutrophils • Lymphoid aggregates (scored 0-2) 0,1-2, >2
Data were collated and analysed by student t test for significance against placebo control.

TNBS colitis [3] = test: TNBS colitis mouse model with and without prednisolone, change in endoscopic score day 3 to day 11 (Example 12); format: in vivo, C56/BL/6 mice
Protocol: Colitis was induced in C56/BL/6 mice and 3 days after disease induction daily treatments commenced.
Mice were induced with colitis by administering TNBS in the same manner as example 11. After three days the lesions were scored by endoscopy and the animals treated with i). 150 mg/kg bromelain in water, ii) 150 mg bromelain and rectally administered threonine/sodium butyrate/vitamin D3, iii). 2 mg/kg oral prednisolone or iv). 150 mg bromelain and rectally administered threonine/sodium butyrate/vitamin D3 plus 2 mg/kg oral prednisolone. Endoscopic scores were measured at day 11 and the change in endoscopic score between day 3 and day 11 calculated (FIG. 16).
Groups are i) placebo, ii) 150 mg bromelain in water orally, iii) 150 mg bromelain & 15 mg/kg menthol orally plus GaRP rectally, iv) 150 mg bromelain & 15 mg/kg menthol orally plus GaRP and 2 mg/kg prednisolone rectally, v) 2 mg/kg prednisolone rectally, and vi) GaRP rectally. GaRP is sodium butyrate 185 mg/kg, threonine 280 mg/kg and Vitamin D3 3.84 micrograms per kg. […] The threonine, sodium butyrate and vitamin D3 were formulated and administered as a rectal gavage at the top of the colon to simulate a formulation which releases in the colon; i.e., to achieve administration to the lower intestine.

[4] = formulation or component plus 80 ug/ml bromelain, 24 h
[5] = without bromelain, test sample apical 24 h, IFN+LPS+TNF cocktail basolateral

| Structure (SMILES) | % inhibition of the release of IL-8 Median ± SEM [1, 4] [%] | % increase in anti-inflammatory activity compared to equivalent formulation without bromelain (difference of means) [1] [%] | % inhibition of the release of IL-8 Median ± SEM [1, 5] [%] | Histological score of colitis, Mean (TNBS colitis [2]) | Mean reduction in endoscopic score (TNBS colitis [3]; TNBS colitis mice, change day 3 to day 11, 2 mg/kg prednisolone) | mean improvement in endoscopic score at day 11 (TNBS colitis [3]; daily treatment from day 3, bromelain 150 mg/kg, menthol 15 mg/kg, prednisolone 2 mg/kg where present, GaRP rectally) |
| --- | --- | --- | --- | --- | --- | --- |
| NC(=O)CC[C@H](N)C(=O)O [L-glutamine] | 83 ± 1 | 72 | 11 ± 7 |  |  |  |
| C[C@]12C=CC(=O)C=C1CC[C@@H]1[C@@H]2[C@@H](O)C[C@@]2(C)[C@H]1CC[C@]2(O)C(=O)CO [prednisolone, Prednisolone] |  |  |  | 3.5 | 4.25 | 4.25 |
| N=C(N)NCCC[C@H](N)C(=O)O [L-arginine] | 73 ± 8 | 67 | 6 ± 8 |  |  |  |
